Usually IC50 stands for the concentration that inhibits the measured activity by half.

SMILES strings stand for the structures.

We go through ten molecules from US8658661B2, “Oxadiazole inhibitors of leukotriene production” (Boehringer Ingelheim International GmbH, priority 2010, dated 2014).

Test [1] deals with synthesis of LTB4 in human whole blood. As to the kind of experiment: Human whole blood assay (inhibition of LTB4 synthesis, calcimycin stimulated). The format is cell-based. Conditions: heparinized human whole blood, calcimycin 20 μM, plasma LTB4. In outline:
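Heparinized human whole blood preincubated with compound 15 min at 37 °C, then stimulated with calcimycin (20 μM final) for 30 min at 37 °C. Plasma LTB4 measured after low-speed centrifugation by antibody-based homogeneous time-resolved fluorescence.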

The target in test [2] is T1, recombinant human FLAP protein (Homo sapiens, UniProt P20292).
T1 construct: made in house; host or cells: Sf9 insect cells (100,000×g membrane pellet used)
T1 sequence (P20292 1-161): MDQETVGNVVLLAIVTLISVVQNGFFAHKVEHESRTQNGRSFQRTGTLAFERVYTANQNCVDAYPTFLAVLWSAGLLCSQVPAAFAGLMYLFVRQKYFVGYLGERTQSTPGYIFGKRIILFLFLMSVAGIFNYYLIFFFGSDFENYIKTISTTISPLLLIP
In words: FLAP binding assay (SPA, displacement of [125I]L-691,831). Conditions: membranes of sf9 cells expressing recombinant human FLAP; [125I]L-691,831 probe; read-out: FLAP binding IC50. In outline: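 Membranes from sf9 cells expressing human FLAP in pH 7.5 Tris buffer (MgCl2, EDTA, PMSF). Non-specific binding defined with 10 μM cold L-691,831.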

For `CC(c1ccc(-c2cnc(N)nc2)cc1)(c1noc(N2CC(O)C2)n1)C1CC1` (centres unmarked) [Example 274, 1-(3-{1-[4-(2-Amino-pyrimidin-5-yl)-phenyl]-1-cyclopropyl-ethyl}-[1,2,4]oxadiazol-5-yl)-azetidin-3-ol], the figures for the IC50 in test [1] and in test [2] were 200 nM and 40 nM, respectively.

As for `CN(C)C(=O)Cn1cc(-c2nc(C(C)(c3ccc(-c4cnc(N)nc4F)cc3)C3CC3)no2)cn1` (centres unmarked) [Example 275, 2-[4-(3-{1-[4-(2-Amino-4-fluoro-pyrimidin-5-yl)-phenyl]-1-cyclopropyl-ethyl}-[1,2,4]oxadiazol-5-yl)-pyrazol-1-yl]-N,N-dimethyl-acetamide], the half-maximal inhibitory concentration (IC50) in test [1] stood at 220 nM; in test [2], 11 nM.

Turning to `CC1(O)CN(c2nc(C(C)(c3ccc(-c4cnc(N)nc4)cc3)C3CC3)no2)C1` (centres unmarked) [Example 276, 1-(3-{1-[4-(2-Amino-pyrimidin-5-yl)-phenyl]-1-cyclopropyl-ethyl}-[1,2,4]oxadiazol-5-yl)-3-methyl-azetidin-3-ol], the half-maximal inhibitory concentration (IC50) is 260 nM in test [1] and 28 nM in test [2].

For `CN(C)C(=O)Cn1cc(-c2nc(C(C)(c3ccc(-c4ccc(F)nc4N)cc3)C3CC3)no2)cn1` (centres unmarked) [Example 277, 2-[4-(3-{1-[4-(2-Amino-6-fluoro-pyridin-3-yl)-phenyl]-1-cyclopropyl-ethyl}-[1,2,4]oxadiazol-5-yl)-pyrazol-1-yl]-N,N-dimethyl-acetamide], the concentration for half-maximal inhibition (IC50) in test [1] was over 5000 nM; in test [2], 64 nM.

For the molecule `CN(C)C(=O)Cn1cc(-c2nc(C(C)(c3ccc(-c4ccc(N)nc4F)cc3)C3CC3)no2)cn1` (centres unmarked) [Example 278, 2-[4-(3-{1-[4-(6-Amino-2-fluoro-pyridin-3-yl)-phenyl]-1-cyclopropyl-ethyl}-[1,2,4]oxadiazol-5-yl)-pyrazol-1-yl]-N,N-dimethyl-acetamide], the IC50 in test [1] was determined as 150 nM; in test [2], 5 nM.

For `CC(C)Nc1ncc(-c2ccc([C@](C)(c3noc(-c4cnn(CC(=O)N(C)C)c4)n3)C3CC3)cc2)cn1` [Example 279, 2-[4-(3-{(R)-1-Cyclopropyl-1-[4-(2-isopropylamino-pyrimidin-5-yl)-phenyl]-ethyl}-[1,2,4]oxadiazol-5-yl)-pyrazol-1-yl]-N,N-dimethyl-acetamide], the IC50 is over 5000 nM in test [1] and 76 nM in test [2].

Regarding `CNc1ccc(-c2ccc([C@](C)(c3noc(-c4cnn(CC(=O)N(C)C)c4)n3)C3CC3)cc2)cn1` [Example 280, 2-[4-(3-{(R)-1-Cyclopropyl-1-[4-(6-methylamino-pyridin-3-yl)-phenyl]-ethyl}-[1,2,4]oxadiazol-5-yl)-pyrazol-1-yl]-N,N-dimethyl-acetamide], the concentration for half-maximal inhibition (IC50) in test [1] was 35 nM; in test [2] it was 3 nM.

`CN(C)C(=O)Cn1cc(-c2nc([C@@](C)(c3ccc(-c4cnc(N)c(C(F)(F)F)c4)cc3)C3CC3)no2)cn1` [Example 281, 2-[4-(3-{(R)-1-[4-(6-Amino-5-trifluoromethyl-pyridin-3-yl)-phenyl]-1-cyclopropyl-ethyl}-[1,2,4]oxadiazol-5-yl)-pyrazol-1-yl]-N,N-dimethyl-acetamide]: the IC50 was 160 nM in test [1] and 5 nM in test [2].

Consider `C[C@@](c1ccc(-c2ccc(N)nc2)cc1)(c1noc(N2CCC(O)CC2)n1)C1CC1` [Example 282, 1-(3-{(R)-1-[4-(6-Amino-pyridin-3-yl)-phenyl]-1-cyclopropyl-ethyl}-[1,2,4]oxadiazol-5-yl)-piperidin-4-ol], for which the values for the IC50 in test [1] and in test [2] were 44 nM and 6.5 nM, respectively.

On to `C[C@](c1ccc(-c2ccc(N)nc2)cc1)(c1noc(N2CCC(O)CC2)n1)C1CC1` [Example 283, 1-(3-{(S)-1-[4-(6-Amino-pyridin-3-yl)-phenyl]-1-cyclopropyl-ethyl}-[1,2,4]oxadiazol-5-yl)-piperidin-4-ol], for which the values for the half-inhibitory concentration (IC50) in test [1] and in test [2] were 920 nM and 16 nM, respectively.
